Assay results as given in patent US20240000939A1, “METHODS OF PERSONALIZED PRECONDITIONING FOR CELL THERAPY” (priority 2021, published 2024).
Entries after “also recorded” stand apart in the source; their conditions may differ.

Assays:
R/R B-cell ALL (B-ALL) = test: Retrospective PRWCC analysis: response, relapse, composite endpoint (relapse or loss of BCA) and overall survival after tisagenlecleucel; format: in vivo, human; details: for HR, overall survival, patients with high pre-infusion disease burden: sub-optimal fludarabine exposure
[1] = Estimated fludarabine exposure (AUC) calculated with a population PK model; design: species or system human
[2] = Retrospective PRWCC analysis: toxicity (CRS, neurotoxicity/ICANS, infection, neutropenia, cause of death) after tisagenlecleucel; format: in vivo, human
Protocol: Study Design. A retrospective analysis of pediatric and young adult patients with R/R B-ALL as part of the Pediatric Real-World CAR Consortium (PRWCC; n=15 centers) was conducted. Two hundred (n=200) patients underwent collection/manufacture for planned standard-of-care CD19-specific CAR T cell therapy (tisagenlecleucel).
Outcomes of interest. The main outcomes of interest were overall survival (OS), cumulative incidence of relapse (CIR), and the cumulative incidence of a composite endpoint (relapse or loss of BCA). Other outcomes of interest were response rates, cytokine release syndrome (CRS), and immune effector cell associated neurotoxicity syndrome (ICANS). Complete remission (CR) was defined as ≤5% bone marrow blasts by morphology, absence of circulating lymphoblasts, and no evidence of extramedullary disease. MRD negativity was defined as <0.01% abnormal B cells assessed by flow cytometry. Relapse was defined as any (medullary or extramedullary) evidence of hematologic, cytogenetic, and/or molecular recurrence of primary disease. CD19-positive B cell recovery was defined as any detectable CD19-positive B cells ([…]) on a peripheral blood lymphocyte flow cytometry panel. Toxicity grading was described according to ASTCT (Lee et al., Biol Blood Marrow Transplant. 04 2019; 25 (4):625-638) for CRS and ICANS. Additionally, patients were further delineated based on their disease burden: high disease burden (≥5% lymphoblasts, CNS3 disease and/or isolated EM disease), and no (undetectable) or low disease burden (<5% lymphoblasts, ≤CNS2 disease, and/or no detectable EM disease) based off the previous PRWCC analysis (Schultz et al., Blood. 2020; 136 (Supplement 1):14-15). The fludarabine exposure, area under the curve (AUC), for each patient was calculated using a population PK model as previously described in Langenhorst et al., Clin Pharmacokinet. May 2019; 58 (5):627-637. The patient variables required to calculate an estimated fludarabine exposure include estimated GFR (using either the Cockroft-Gault or Schwartz equation depending on age), actual body weight, height, and dosage of fludarabine utilized where actual body weight and estimated GFR are the best predictors of fludarabine PK (Langenhorst et al., Clin Pharmacokinet. May 2019; 58 (5):627-637).
Statistical Analysis. For all analyses, tisagenlecleucel infusion date was considered time zero (0). The impact of different factors on the chance of response was assessed through Mann-Whitney-Wilcoxon test for continuous variables, Chi-squared or Fisher's exact test for categorical variables (univariable analysis), and logistic regression (multivariable analysis). OS for all treated patients was defined as the time from infusion to death from all causes. OS in responding patients was defined as time from day of response (day 28 from CAR infusion) to death from all causes. Patients alive were censored at their last follow-up date. Time-to-relapse was defined as the time from the date of infusion to the date of disease relapse, while time-to-composite endpoint was defined as the time from the date of infusion to the date of either disease relapse or loss of BCA, whichever came first. For both endpoints, patients alive without disease relapse (and loss of BCA for composite endpoint) were censored at their date of last follow-up. Death and allo-HCT without disease relapse (and loss of BCA) were considered competing events. […]

[3] = multivariable, AUC <13.8 (sub-optimal) vs ≥13.8 mg*hr/L (ref), responding patients
[4] = univariable, AUC <13.8 vs ≥13.8 mg*hr/L (ref)
[5] = univariable, AUC <13.8 vs ≥13.8 mg*hr/L (ref), responding patients

Nc1nc(F)nc2c1ncn2[C@@H]1O[C@H](CO)[C@@H](O)[C@@H]1O [fludarabine, reference compound]
odds ratio of response by cumulative Flu AUC (mg*hr/L) (R/R B-cell ALL (B-ALL); multivariable analysis, AUC as continuous variable): 0.81
HR, overall survival in responding patients (R/R B-cell ALL (B-ALL); multivariable, AUC <13.8 (sub-optimal) vs ≥13.8 mg*hr/L (ref)): 1.97
HR, overall survival in all treated patients (R/R B-cell ALL (B-ALL); multivariable, AUC <13.8 (sub-optimal) vs ≥13.8 mg*hr/L (ref), entire cohort): 1.53
HR, cumulative incidence of composite endpoint (relapse or loss of B-cell aplasia) (R/R B-cell ALL (B-ALL); [3]): 1.96
HR, cumulative incidence of relapse (R/R B-cell ALL (B-ALL); [3]): 2.45
HR, overall survival, patients with high pre-infusion disease burden (R/R B-cell ALL (B-ALL); all treated patients): 2.27
HR, overall survival, patients with high pre-infusion disease burden (R/R B-cell ALL (B-ALL); responding patients only): 3.50
HR, overall survival in all treated patients (R/R B-cell ALL (B-ALL); [4]): 1.51
HR, overall survival in responding patients (R/R B-cell ALL (B-ALL); [4]): 2.25
HR, cumulative incidence of composite endpoint (relapse or loss of B-cell aplasia) (R/R B-cell ALL (B-ALL); [5]): 1.77
HR, cumulative incidence of relapse (R/R B-cell ALL (B-ALL); [5]): 1.95
fludarabine AUC threshold of interest for disease relapse ([1]; Example 1, exposure analyzed as continuous variable (FIG. 1)): 13800 ng·h/mL
optimal fludarabine exposure (AUC) ([1]; Example 2, where hazard ratio curve for CIR crosses HR=1): ≥ 13800 ng·h/mL
patients who died from infection ([2]; all received suboptimal fludarabine): four
infection risk with increased fludarabine exposure (≥13.8 mg*hr/L) ([2]; in vivo): no apparent increased infection risk
association of optimal fludarabine exposure with toxicity (CRS, neurotoxicity) ([2]; neurotoxicity limited to ICANS graded patients): not associated with increased CRS or neurotoxicity; also recorded: No increase in toxicity
ICANS grade ≥3 (sICANS) ([2]; optimal flu (≥13.8 mg*hr/L), 5/67): 7%
ICANS grade ≥3 (sICANS) ([2]; optimal flu (≥13.8 mg*hr/L), 5/67, listed as flu): (7%)
ICANS grade ≥1 ([2]; optimal flu (≥13.8 mg*hr/L), 15/67): 22%
ICANS grade ≥1 ([2]; optimal flu (≥13.8 mg*hr/L), 15/67, listed as flu): (22%)
CRS grade ≥3 (sCRS) ([2]; optimal flu (≥13.8 mg*hr/L), 18/102): 18%
CRS grade ≥3 (sCRS) ([2]; optimal flu (≥13.8 mg*hr/L), 18/102, listed as flu): (18%)
infection post CAR T cell therapy ([2]; optimal fludarabine exposure, 36/102): 35%
Grade 4 neutropenia ([2]; patients receiving optimal fludarabine): 65%
Grade 4 neutropenia ([2]; patients receiving suboptimal fludarabine): 67%
ICANS grade ≥3 (sICANS) ([2]; sub-optimal flu (<13.8 mg*hr/L), 4/31): 13%
ICANS grade ≥3 (sICANS) ([2]; sub-optimal flu (<13.8 mg*hr/L), 4/31, listed as flu): (13%)
ICANS grade ≥1 ([2]; sub-optimal flu (<13.8 mg*hr/L), 9/31): 29%
ICANS grade ≥1 ([2]; sub-optimal flu (<13.8 mg*hr/L), 9/31, listed as flu): (29%)
CRS grade ≥3 (sCRS) ([2]; sub-optimal flu (<13.8 mg*hr/L), 15/50): 30%
CRS grade ≥3 (sCRS) ([2]; sub-optimal flu (<13.8 mg*hr/L), 15/50, listed as flu): (30%)
infection post CAR T cell therapy ([2]; suboptimal fludarabine exposure, 21/50): 42%

tisagenlecleucel
12-month OS (R/R B-cell ALL (B-ALL); Example 1): 75%
12-month cumulative incidence of relapse in responders (R/R B-cell ALL (B-ALL); Example 1): 39.2%
12-month CIR in responding patients (R/R B-cell ALL (B-ALL); Example 2): 36.4%
12-month OS (R/R B-cell ALL (B-ALL); Example 2, entire cohort): 75.1%
24-month OS (R/R B-cell ALL (B-ALL); Example 2, entire cohort): 56.5%
cumulative incidence of composite endpoint (relapse or loss of BCA) (R/R B-cell ALL (B-ALL); at 12-months, responding patients): 55.2%
loss of BCA post CAR (R/R B-cell ALL (B-ALL); n=152): (34%)
relapsed post CAR (R/R B-cell ALL (B-ALL); n=152): (36%)
CD19-negative relapse (R/R B-cell ALL (B-ALL); share of relapses post CAR): (45%)
CD19-positive relapse (R/R B-cell ALL (B-ALL); share of relapses post CAR): (55%)
severe neurotoxicity (grade 3 or higher) ([2]; all patients, 12/152): 8%
severe CRS (sCRS; grade 3 or higher) ([2]; all patients, 33/152): 22%
neurotoxicity ([2]; all patients, 36/152): 24%
infection post CAR T cell therapy ([2]; all patients, 57/152): 38%
Grade 4 neutropenia ([2]; all patients, 97/148): 66%
CRS ([2]; all patients, 97/152): 64%
CRS grade 1 ([2]; n=152): (24%)
CRS grade 2 ([2]; n=152): (18%)
CRS grade 3 ([2]; n=152): (11%)
CRS grade 4 ([2]; n=152): (10%)
CRS grade 5 ([2]; n=152): (1%)
CRS grade none ([2]; n=152): (36%)
Neurotoxicity grade 1 ([2]; n=152): (11%)
Neurotoxicity grade 2 ([2]; n=152): (5%)
Neurotoxicity grade 3 ([2]; n=152): (5%)
Neurotoxicity grade 4 ([2]; n=152): (2%)
Neurotoxicity grade 5 ([2]; n=152): (1%)
Neurotoxicity grade none ([2]; n=152): (76%)
Cause of death: ARDS/cardiac arrest ([2]; share of deaths): (2%)
Cause of death: CRS ([2]; share of deaths): (2%)
Cause of death: Infection ([2]; share of deaths): (10%)
Cause of death: Leukemia ([2]; share of deaths): (74%)
Cause of death: Neurotoxicity ([2]; share of deaths): (2%)
Cause of death: Transplant related ([2]; share of deaths): (7%)
